Entries after “also recorded” stand apart in the source; their conditions may differ.
Columns and labels:
[1] = test system: RBE4 cells; assay: γ-H2AX counts after local 3×3 mm X-ray irradiation (irradiated and bystander zones), RBE4 cells; assay type: cell-based, rat; conditions: 1 Gy, 3 h post-irradiation, Cbx 50 μM, Gap26 161 μM, TAT-Gap19 200 μM, Xestospongin C 5 μM
Protocol: (§1) A defined area of the cell culture dishes were exposed to X-rays (1Gy or 20 Gy) by using a small animal radiation research platform (SARRP, Xstrahl, 220 kV, 13 mA), making use of a 3×3 mm collimator. Whole dish irradiation was done using a 10×10 cm broad-beam collimator, while localized Irradiation was performed with a 3×3 mm collimator. A Gafchromic RTQA2 film, with a sensitivity of 0.02 Gy, was placed underneath the cell dishes in order to delineate the irradiated zone.
(§2) Cells were fixed for 25 min with 4% formaldehyde (VWR) and blocked for 30 min with blocking buffer (5% normal goat serum, 1% bovine serum albumin (BSA), 0.2% Triton X-100 in PBS D+). Overnight incubation with primary antibody (1/500 anti-γ-H2AX in dilution buffer, 1/10 blocking buffer in PBS D+) was followed by a 1 h incubation with 1/400 XX-biotin-goat-anti-mouse antibody in dilution buffer, followed by a 1 h incubation with 1/400 streptavidin-alexa488 in PBS D+. Nuclei were stained with 1 μg/mL DAPI in PBS D+ for 10 min and cells were kept in PBS D+ supplemented with NaN3 at 4° C. All steps except the overnight incubation which was carried out at 4° C., were carried out at room temperature and cell cultures were rinsed thoroughly with PBS D+ between all incubation steps. Imaging was performed with an automated BD Pathway 435 imaging system (10× objective, 10×10 montage resulting in an overall image size of 8.5×6.5 mm). We then quantified the number of γ-H2AX-foci positive nuclei in the directly irradiated and bystander areas and expressed the count as a percentage relative to the number of nuclei and subtracted the percentage of background γ-H2AX signal in non-irradiated paired control cultures for each experiment. For counting γ-H2AX foci, images were thresholded to remove background pixel noise below the foci level. Where applicable, results were normalized against vehicle (bar charts with a 100% vehicle bar without statistical variability or a horizontal line).

[2] = test system: primary brain microvascular endothelial cells (pBMECs); assay: γ-H2AX counts after local 3×3 mm X-ray irradiation (irradiated and bystander zones), pBMECs; assay type: cell-based, mouse; conditions: 1 Gy, 3 h post-irradiation
Protocol: Cortices, from 10-12 week old mice, were isolated by removing cerebellum, striatum, optic nerves, brain white matter, outer vessels and meninges. After homogenization with a Dounce homogenizer in WBB (Washing Buffer B: HMS, 10 mM Hepes, 0.35 g/L NaHCO3, 0.1% BSA), the homogenate was mixed with 30% dextran in WBB and centrifuged at 3000×g for 25 min at 4° C. The pellet containing the vascular component was then resuspended in WBB and filtered through a 60 μm NY60 Nylon Net Filter (Millipore, Darmstadt, Germany). Following centrifugation at 1000×g for 7 min at room temperature, the pellet was digested in collagenase/dispase supplement with DNase I (Roche Diagnostics, Vilvoorde, Belgium) and TLCK (Tosyl, Lysin chloromethyl ketone, sigma-aldrich) for 33 min at 37° C. in a shaking water bath. The digested capillary suspension was then seeded after multiple washing steps on wells coated with matrigel or glass coated with Corning Cell-Tak (VWR, Leuven, Belgium). For the isolation of intact capillaries the protocol was aborted just before the digestion step.
as §1, §2

[3] = test system: RBE4 cells; assay: Irradiation-induced ATP release, RBE4 cells; assay type: cell-based, rat; conditions: broad-beam 1 Gy, 5 min post-irradiation, BAPTA-AM 10 μM, NALC 1 mM, c-PTIO 100 μM
Protocol: ATP was measured using a luciferin-luciferase assay kit (Sigma-Aldrich) in combination with a luminometer plate reader (Victor3 1420 multi label counter; Perkin Elmer, Zaventem, Belgium).
Extracellular ATP measurements were initially carried out at different time-points post-irradiation, the effect of blockers on ATP release was tested at the 5 min post-irradiation time-point (time of maximum ATP release).

[4] = test system: RBE4 cells; assay: Irradiation-induced propidium iodide dye uptake, RBE4 cells; assay type: cell-based, rat; conditions: 1 Gy, 5 min post-irradiation
Protocol: Cells were grown to near confluency in 4-well plates. Cultures were incubated with 1 mM propidium iodide (PI) and 200 μM 10 kDa dextran-FITC before focal irradiation and dye uptake was measured 5 min post-irradiation by measuring the fluorescence intensity of both dyes following image acquisition with a BD pathway 435 imaging system.

[5] = test system: RBE4 cells; assay: Cytosolic Ca2+ imaging after medium transfer from irradiated to recipient RBE4 cells; assay type: cell-based, rat; conditions: for AUC of Ca2+ transients in recipient bystander cells: inhibitor added to the irradiated culture 30 min before irradiation, NALC 1 mM; for [Ca2+]i responses in recipient cells: inhibitor added to the recipient cells, PPADS 50 μM
Protocol: Cells were seeded on glass coverslips (18 mm 0) coated with 3.5 μg/cm^2 Corning cell-tak (VWR, Leuven, Belgium) and ester loaded for 45 min with 10 μM Fluo-3-AM in HBSS-HEPES supplemented with 1 mM of probenecid and 0.01% of pluronic F127 at room temperature followed by de-esterification over 15 min. Imaging was performed using an inverted fluorescence microscope equipped with a ×40 oil immersion objective and an EM-CCD camera (QuantEM™ 512SC CCD camera, Photometrics, Tucson, Ariz.). For direct Ca^2+ measurements the loaded cells were irradiated and transferred to the microscopy stage. For medium transfer, the loaded cells were superfused for 1 min with HBSS-Hepes (1 mM), followed by 4 min with HBSS-Hepes conditioned by irradiated cultures. Fluorescence intensity changes in the cells were analyzed with custom-developed FluoFrames software (L. Leybaert, Ghent, Belgium). Ca^2+ changes were quantified as the area under the curve (AUC) of the Ca^2+ traces.

[6] = test system: RBE4 cells; assay: γ-H2AX counts in electroporation-loaded bystander zone, RBE4 cells; assay type: cell-based, rat; conditions: BH4-Bcl-2 20 μM, BAPTA 60 μM, SOD 100 μg/mL (3 μM)
Protocol: as §2
Cells were grown to near confluency on 4-well plates coated with collagen. Cell monolayer cultures were washed three times with HBSS-Hepes 25 mM (pH 7.2-7.4) and subsequently three times with a low conductivity electroporation buffer (4.02 mM KH2PO4, 10.8 mM K2HPO4, 1.0 mM MgCl2, 300 mM sorbitol, 2.0 mM Hepes, pH 7.4). They were placed 400 μm underneath a two-wire Pt-Ir electrode on the microscopic stage and electroporated in the presence of a tiny amount of electroporation solution (10 μl) containing 100 μg/mL SOD, 60 μM BAPTA or 20 μM BH4-Bcl2 combined with 100 μM 10 kDa DTR. […]

Compound | γ-H2AX counts in the bystander zone (normalized to vehicle) [1] | γ-H2AX counts in the irradiated zone (normalized to vehicle) [1] | γ-H2AX counts in the irradiated area (normalized to vehicle) [2] | irradiation-induced ATP release [3] | γ-H2AX counts in the bystander zone (normalized to vehicle) [2] | further results
Gap26: connexin mimetic peptide, amino acids 64-76 from the first extracellular loop of Cx43 (SEQ ID NO: 1) (VCYDKSFPISHVR; Synthetic peptide_Gap26) | significantly inhibited | significantly inhibited | only had effect in the bystander zone | inhibited | – | PI uptake in the bystander area [4]: significantly reduced; also recorded: inhibited; PI uptake in the irradiated area [4]: significantly reduced; also recorded: inhibited; AUC of Ca2+ transients in recipient bystander cells [5]: reduced the area under the curve (AUC); [Ca2+]i responses in recipient cells [5]: inhibited the [Ca^2]i responses
O=C([O-])CN(CC(=O)[O-])c1ccccc1OCCOc1ccccc1N(CC(=O)[O-])CC(=O)[O-].[K+].[K+].[K+].[K+] [BAPTA] | – | – | – | – | – | γ-H2AX scores in the electroporation-loaded bystander zone (normalized to vehicle) [6]: significantly decreased γ-H2AX counts; also recorded: strongly reduced the γ-H2AX scores
C1CCC[C@H]2CCCN3CC[C@@H](CCCCCC[C@@H]4CCCN5CC[C@@H](CC1)O[C@@H]45)O[C@@H]23 [Xestospongin C] | significantly reduced γ-H2AX counts in the bystander zone | – | – | – | – | –
CC(=O)OCOC(=O)CN(CC(=O)OCOC(C)=O)c1ccccc1OCCOc1ccccc1N(CC(=O)OCOC(C)=O)CC(=O)OCOC(C)=O [BAPTA-AM, 1.2-bis-(2-aminophynoxy)-ethane-N,N,N′,N′,tetraacetic acid acetoxy methyl ester] | less clear responses | less clear responses | significantly reduced the γ-H2AX scores in both areas | inhibited irradiation-induced ATP release; also recorded: significantly decreased ATP release | significantly reduced the γ-H2AX scores in both areas; also recorded: almost zero | –
CC1(C)N([O])C(c2ccc(C(=O)O)cc2)=[N+]([O-])C1(C)C [c-PTIO] | less clear responses | less clear responses | significantly reduced the γ-H2AX scores in both areas | strongly reduced irradiation-induced ATP release | significantly reduced the γ-H2AX scores in both areas | γ-H2AX counts in the bystander zone (normalized to vehicle) ([2]; listed as C-PTIO): almost zero; irradiation-induced ATP release ([3]; listed as C-PTIO): inhibited irradiation-induced ATP release
CC(=O)N[C@@H](CS)C(=O)O [NALC, N-acetyl-L-cystein] | less clear responses | less clear responses | significantly reduced the γ-H2AX scores in both areas | inhibited irradiation-induced ATP release; also recorded: significantly decreased ATP release | significantly reduced the γ-H2AX scores in both areas; also recorded: almost zero | AUC of Ca2+ transients in recipient bystander cells [5]: reduced the area under the curve (AUC)
BH4-Bcl-2: IP3 receptor blocking peptide (amino acids 6-30 of Bcl-2; MW 3.6 kDa) (RTGYDNREIVMKYIHYKLSQRGYEW; UniProt P10415 6-30, looked up, fragment) | – | – | – | – | – | γ-H2AX scores in the electroporation-loaded bystander zone (normalized to vehicle) [6]: strongly reduced the γ-H2AX scores; γ-H2AX scores in the electroporation-loaded bystander zone (normalized to vehicle) ([6]; listed as BH4-Bcl2): significantly decreased γ-H2AX counts
Cc1nc(N=Nc2ccc(S(=O)(=O)O)cc2S(=O)(=O)O)c(COP(=O)(O)O)c(C=O)c1O [PPADS, Pyridoxalphosphate-6-azopehyl-2′,4′-disolfonic acid] | significantly reduced γ-H2AX scores | – | – | – | – | [Ca2+]i responses in recipient cells [5]: inhibited the [Ca^2]i responses

Source: patent US20200384072A1, “THERAPY OF IONIZING RADIATION-INDUCED DISORDERS” (SCK-CEN, priority 2019, published 2020)
